Reference: publication PMC6509188, “Enterococcus faecalis Encodes an Atypical Auxiliary Acyl Carrier Protein Required for Efficient Regulation of Fatty Acid Synthesis by Exogenous Fatty Acids” (mBio, 2019)

Tests used:
Format in all cases: biochemical
AasS = target: T1, AasS (Vibrio harveyi, UniProt Q00IB3); assay: acyl-ACP synthesis, urea-PAGE; conditions: acceptor holo-AcpA or holo-AcpB of E. faecalis; 2 mM ATP, 200 uM acid, 37 C
T1 construct: N-terminal hexahistidine tag, expressed from pYFJ84, nickel-chelate purified; used to prepare acyl-ACPs

AcpS = target: T2, AcpS (Enterococcus faecalis, UniProt Q820V0); assay: conversion of apo-ACP to holo-ACP, PAGE; conditions: acceptor apo-AcpA or apo-AcpB of E. faecalis; Mg2+, Tris-HCl pH 8.0, 37 C
T2 construct: N-terminal hexahistidine tag, expressed from pZL311, nickel-chelate purified
T2 sequence (Q820V0 1-117): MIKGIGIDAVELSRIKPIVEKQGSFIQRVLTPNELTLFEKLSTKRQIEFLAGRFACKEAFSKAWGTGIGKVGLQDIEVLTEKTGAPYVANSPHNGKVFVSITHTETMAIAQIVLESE

PlsX = target: T3, PlsX (Enterococcus faecalis, UniProt Q82ZE8); assay: acyl transfer to holo-ACP, urea-PAGE; conditions: acyl acceptor holo-AcpB of E. faecalis; 0.05 uM PlsX, 0.75 mM Mg2+, 0.5 mM DTT, 0.1 M HEPES pH 7.0, 37 C
T3 construct: N-terminal hexahistidine tag, expressed from pZL391 in E. coli, purified
T3 sequence (Q82ZE8 1-333): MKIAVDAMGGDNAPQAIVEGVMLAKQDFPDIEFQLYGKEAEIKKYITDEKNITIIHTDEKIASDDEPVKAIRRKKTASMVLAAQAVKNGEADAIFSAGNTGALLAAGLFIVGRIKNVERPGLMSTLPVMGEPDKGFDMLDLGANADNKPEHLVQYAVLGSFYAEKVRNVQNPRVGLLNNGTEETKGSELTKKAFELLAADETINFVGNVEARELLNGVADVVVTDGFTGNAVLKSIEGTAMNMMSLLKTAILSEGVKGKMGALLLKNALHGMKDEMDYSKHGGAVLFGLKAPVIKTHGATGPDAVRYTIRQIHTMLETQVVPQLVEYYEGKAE

T1 sequence (Q00IB3 entry or part of it): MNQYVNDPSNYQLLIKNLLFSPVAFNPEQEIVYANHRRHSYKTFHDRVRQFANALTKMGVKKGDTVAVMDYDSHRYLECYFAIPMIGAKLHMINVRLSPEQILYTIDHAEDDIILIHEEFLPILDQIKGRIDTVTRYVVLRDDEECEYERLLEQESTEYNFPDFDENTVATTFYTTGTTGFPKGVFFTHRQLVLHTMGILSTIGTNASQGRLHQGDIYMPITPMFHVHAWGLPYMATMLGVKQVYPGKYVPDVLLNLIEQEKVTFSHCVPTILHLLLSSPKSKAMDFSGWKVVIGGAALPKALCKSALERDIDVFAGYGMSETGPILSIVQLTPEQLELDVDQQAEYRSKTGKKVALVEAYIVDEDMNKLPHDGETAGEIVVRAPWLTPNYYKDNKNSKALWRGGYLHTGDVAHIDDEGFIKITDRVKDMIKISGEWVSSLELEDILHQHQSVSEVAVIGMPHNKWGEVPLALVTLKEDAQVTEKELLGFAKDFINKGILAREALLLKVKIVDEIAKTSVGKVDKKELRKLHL

Compound: CCCCCCC/C=C/C(=O)O [trans-2-decenoic acid]
- acyl-ACP synthesis, urea-PAGE (AasS): Incubation of the holo proteins with AasS, ATP, and trans-2-decenoic acid resulted in trans-2-decenoyl-AcpA

Compound: CC(C)(COP(=O)(O)OP(=O)(O)OC[C@H]1O[C@@H](n2cnc3c(N)ncnc32)[C@H](O)[C@@H]1OP(=O)(O)O)[C@@H](O)C(=O)NCCC(=O)NCCS [CoA]
- conversion of apo-ACP to holo-ACP, PAGE (AcpS): treated with E. faecalis AcpS and coenzyme A (CoA)

Compound: CCCCCCCCCCCCCCCCCC(=O)OP(=O)(O)O [stearoyl-phosphate]
- acyl transfer to holo-ACP, urea-PAGE (PlsX): AcpB was fully converted into acyl-AcpB when stearoyl-phosphate (C18:0-PO4) or oleyl-phosphate (C18:1-PO4)
